# Test results: patent publication US20240082277A1, “MODIFIED ANTIHISTAMINE COMPOSITION AND ANTIVIRAL TREATMENT” (priority 2022, published 2024)
# Structures can show the parent of a compound that is named as a salt. Where two headings read alike, the source gives them in different places.
# Experiments:
# [1] = target: T1, human H1 histamine receptors (HRH1) (Homo sapiens, UniProt P35367); assay: HRH1 antagonist calcium flux assay (Fluo-8, FLIPR TETRA) in CHO-K1 cells; assay type: cell-based
# T1 construct: expressed in transfected cells; host or cells: CHO-K1
# T1 sequence (P35367 whole entry): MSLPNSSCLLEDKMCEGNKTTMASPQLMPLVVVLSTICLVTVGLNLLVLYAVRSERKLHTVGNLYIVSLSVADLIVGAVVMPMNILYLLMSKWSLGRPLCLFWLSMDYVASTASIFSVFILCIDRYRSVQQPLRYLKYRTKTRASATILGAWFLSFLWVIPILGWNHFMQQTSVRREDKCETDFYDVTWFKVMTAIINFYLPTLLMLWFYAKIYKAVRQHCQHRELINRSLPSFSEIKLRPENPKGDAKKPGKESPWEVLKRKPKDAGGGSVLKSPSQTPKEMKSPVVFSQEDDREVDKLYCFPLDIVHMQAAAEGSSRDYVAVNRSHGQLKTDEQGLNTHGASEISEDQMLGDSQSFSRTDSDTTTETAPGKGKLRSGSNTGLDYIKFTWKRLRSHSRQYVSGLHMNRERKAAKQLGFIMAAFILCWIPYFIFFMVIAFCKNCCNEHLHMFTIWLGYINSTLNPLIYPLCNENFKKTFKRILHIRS
# [2] = test system: SARS-CoV-2 Delta (B.1.617.2)
# [3] = test system: SARS-CoV-2 Omicron (B.1.1.529)
# in vitro = settings: African green monkey, Cytotoxicity (CC50)
# [4] = test system: SARS-CoV-2 Delta (B.1.617.2); assay: microbe, parasite or virus in culture
# [5] = test system: SARS-CoV-2 Omicron (B.1.1.529); assay: microbe, parasite or virus in culture
# [6] = CHO-K1, read-out: Normalized % Inhibition
# [7] = Severe acute respiratory syndrome coronavirus 2, VeroE6/TMPRSS2, read-out: % cell viability
smiles,measurement,setting,value
O=C(O)COCCN1CCN(C(c2ccccc2)c2ccc(Cl)cc2)CC1 (stereo not shown) [Cetirizine Dihydrochloride],inhibition at 0.01 µM,[1]; [6],23.9%
same,inhibition at 0.03 µM,[1]; [6],23.6%
same,inhibition at 0.1 µM,[1]; [6],15.3%
same,inhibition at 0.3 µM,[1]; [6],14.2%
same,inhibition at 1 µM,[1]; [6],31.3%
same,inhibition at 3 µM,[1]; [6],67.3%
same,inhibition at 10 µM,[1]; [6],98.9%
same,inhibition at 100 µM,[1]; [6],99.3%
same,inhibition at 30 µM,"[1]; CHO-K1, 30000 nM, antagonist assay vs 70 nM histamine, read-out: Normalized % Inhibition",100%
"CN(C)CCOC(c1ccccc1)c1ccccc1 [Diphenhydramine hydrochloride, reference compound]",Effect on percentage infection (in words),[2],slight reduction in percentage infection was seen
same,Effect on percentage infection (in words),"[2]; Therapeutic treatment, Delta strain",slight reduction in percentage infection was seen
NCCc1c[nH]cn1 [Histamine],RLU (maximum Relative Light Unit),[1],3431.5 RLU
"CN(C)CCO[Si](C)(c1ccccc1)c1ccccc1 [Q-Ant #8, N,N-dimethyl-2-((methyldiphenylsilyl)oxy)ethan-1-amine]",IC50,[1],33.5 nM
same,inhibition at 1 µM,[1]; [6],97.7%
same,inhibition at 0.0003 µM,"[1]; CHO-K1, 0.3 nM, antagonist assay vs 70 nM histamine, read-out: Normalized % Inhibition",-32.6%
same,inhibition at 0.001 µM,"[1]; CHO-K1, 1 nM, antagonist assay vs 70 nM histamine, read-out: Normalized % Inhibition",-33.4%
same,inhibition at 0.003 µM,"[1]; CHO-K1, 3 nM, antagonist assay vs 70 nM histamine, read-out: Normalized % Inhibition",-31%
same,inhibition at 0.01 µM,"[1]; CHO-K1, 10 nM, antagonist assay vs 70 nM histamine, read-out: Normalized % Inhibition",-11.9%
same,inhibition at 0.03 µM,"[1]; CHO-K1, 30 nM, antagonist assay vs 70 nM histamine, read-out: Normalized % Inhibition",29.4%
same,inhibition at 0.1 µM,"[1]; CHO-K1, 100 nM, antagonist assay vs 70 nM histamine, read-out: Normalized % Inhibition",72.9%
same,inhibition at 0.3 µM,"[1]; CHO-K1, 300 nM, antagonist assay vs 70 nM histamine, read-out: Normalized % Inhibition",97.1%
same,Effect on percentage infection (in words),[2],No effect was seen
same,Efficacy (EC50) Delta,[2],483.0 µg/mL
same,Selectivity index Delta (CC50/EC50),[2]; Therapeutic treatment,0.86
same,Effect on percentage infection (in words),[3],reduction in percentage infection was seen
same,Efficacy (EC50) Omicron,[3],245.6 µg/mL
same,Selectivity index Omicron (CC50/EC50),[3]; Therapeutic treatment,1.69
same,Cytotoxicity (CC50),Vero E6 TMPRSS2 cells; African green monkey,415.3 µg/mL
same,Toxicity (in words),Vero E6 TMPRSS2 cells; compared with traditional antihistamines,less toxic than traditional antihistamines
same,CC50,in vitro,613 µg/mL
same,viability at 0.318 µg/mL,[4]; [7],102%
same,viability at 1.004 µg/mL,[4]; [7],93.9%
same,viability at 3.174 µg/mL,[4]; [7],95%
same,viability at 10.029 µg/mL,[4]; [7],100%
same,viability at 31.691 µg/mL,[4]; [7],99.4%
same,viability at 100.144 µg/mL,[4]; [7],98.2%
same,viability at 316.456 µg/mL,[4]; [7],73.5%
same,viability at 0.318 µg/mL,[5]; [7],105%
same,viability at 1.004 µg/mL,[5]; [7],91.3%
same,viability at 3.174 µg/mL,[5]; [7],96.8%
same,viability at 10.029 µg/mL,[5]; [7],105%
same,viability at 31.691 µg/mL,[5]; [7],101%
same,viability at 100.144 µg/mL,[5]; [7],89.8%
same,viability at 316.456 µg/mL,[5]; [7],36.8%
CCC(CC)COC(=O)[C@H](C)N[P@](=O)(OC[C@H]1O[C@@](C#N)(c2ccc3c(N)ncnn23)[C@H](O)[C@@H]1O)Oc1ccccc1 [Remdesivir],viability at 0.004 µg/mL,[4]; [7],105%
same,viability at 0.012 µg/mL,[4]; [7],91.3%
same,viability at 0.038 µg/mL,[4]; [7],96.8%
same,viability at 0.12 µg/mL,[4]; [7],105%
same,viability at 0.38 µg/mL,[4]; [7],101%
same,viability at 1.202 µg/mL,[4]; [7],89.8%
same,viability at 3.797 µg/mL,[4]; [7],36.8%
same,EC50,"[4]; Severe acute respiratory syndrome coronavirus 2, VeroE6/TMPRSS2, read-out: Efficacy (EC50) Delta",~3 µg/mL
same,viability at 0.004 µg/mL,[5]; [7],101%
same,viability at 0.012 µg/mL,[5]; [7],95.9%
same,viability at 0.038 µg/mL,[5]; [7],106%
same,viability at 0.12 µg/mL,[5]; [7],105%
same,viability at 0.38 µg/mL,[5]; [7],92.8%
same,viability at 1.202 µg/mL,[5]; [7],84.1%
same,viability at 3.797 µg/mL,[5]; [7],44.6%
same,viability at 12 µg/mL,[5]; [7],20.7%
same,EC50,"[5]; Severe acute respiratory syndrome coronavirus 2, VeroE6/TMPRSS2, read-out: Efficacy (EC50) Omicron",~3 µg/mL
